In patent publication US5861393A, “Antithrombotic amidinophenylalanine and amidinopyridylalanine derivatives” (Pfizer Inc., priority 1993, dated 1999) one finds Ki data, which are given here for six molecules.

Counter-ions that a name gives are not always drawn.

Holding throughout (type): biochemical
For one experiment, the target named is bovine thrombin (Bos taurus, UniProt P00735). The experiment can be described thus: Chromogenic assay, inhibition of thrombin. The conditions noted are these: in vitro; substrate S2238; pH 8.0; 30 minutes at 30° C. The procedure: (§1) The inhibition of thrombin, trypsin, plasmin or factor Xa is measured in 96 well plate chromogenic assays. The percentage inhibition and IC50 are calculated from triplicate samples of an 8 concentration dose-response curve. From the substrate Km and IC50, the Ki for each inhibitor is calculated. All assays are carried out in a total incubation of 200 μl of 50 mM HEPES and 150 mM NaCl at pH 8.0, and all compound dilutions are preincubated with enzyme at room temperature for 15 minutes prior to addition of substrate. After 30 minutes incubation at 30° C., the O.D. is measured at […] in a 96 well plate reader. Thrombin activity is measured using bovine thrombin and S2238 (H-D-Phe-Pip-Arg-pNA), bovine pancreatic trypsin is assayed with S2222 (Benz-Isoleu-Glu-Gly-Arg-pNA), bovine plasma plasmin is assayed with Chromozym PL (Tosyl-Gly-Pro-Lys-pNA)and bovine factor Xa is assayed in 50 mM Tris,150mM NaCl,pH 7.5 buffer with S2222.

The target of experiment [1] is T1, bovine pancreatic trypsin (Bos taurus, UniProt P00760).
T1 construct: from tissue; host or cells: bovine pancreas
T1 sequence (P00760 24-246): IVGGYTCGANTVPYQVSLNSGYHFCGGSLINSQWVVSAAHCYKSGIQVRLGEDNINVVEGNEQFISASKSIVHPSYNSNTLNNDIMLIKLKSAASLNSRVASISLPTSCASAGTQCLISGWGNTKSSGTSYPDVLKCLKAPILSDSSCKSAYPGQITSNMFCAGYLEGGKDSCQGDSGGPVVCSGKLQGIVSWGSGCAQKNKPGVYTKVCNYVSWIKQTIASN
Put plainly: Chromogenic assay, inhibition of trypsin. The following applies: in vitro; substrate S2222; pH 8.0; 30 minutes at 30° C. The procedure:
as §1

Another experiment concerns the target T2, bovine plasma plasmin (Bos taurus, UniProt P06868).
T2 construct: from tissue; host or cells: bovine plasma
Put plainly: Chromogenic assay, inhibition of plasmin. The following applies: in vitro; substrate Chromozym PL; pH 8.0; 30 minutes at 30° C. The procedure:
as §1

T2 sequence (P06868 584-812 limits assumed): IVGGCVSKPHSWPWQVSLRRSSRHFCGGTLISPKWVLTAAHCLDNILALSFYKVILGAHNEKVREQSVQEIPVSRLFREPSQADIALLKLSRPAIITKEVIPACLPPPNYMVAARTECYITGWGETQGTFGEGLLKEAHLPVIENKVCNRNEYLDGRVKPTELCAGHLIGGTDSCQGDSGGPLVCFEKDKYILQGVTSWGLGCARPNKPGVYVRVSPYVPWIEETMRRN
T2 sequence (P06868 105-583 partner limits assumed): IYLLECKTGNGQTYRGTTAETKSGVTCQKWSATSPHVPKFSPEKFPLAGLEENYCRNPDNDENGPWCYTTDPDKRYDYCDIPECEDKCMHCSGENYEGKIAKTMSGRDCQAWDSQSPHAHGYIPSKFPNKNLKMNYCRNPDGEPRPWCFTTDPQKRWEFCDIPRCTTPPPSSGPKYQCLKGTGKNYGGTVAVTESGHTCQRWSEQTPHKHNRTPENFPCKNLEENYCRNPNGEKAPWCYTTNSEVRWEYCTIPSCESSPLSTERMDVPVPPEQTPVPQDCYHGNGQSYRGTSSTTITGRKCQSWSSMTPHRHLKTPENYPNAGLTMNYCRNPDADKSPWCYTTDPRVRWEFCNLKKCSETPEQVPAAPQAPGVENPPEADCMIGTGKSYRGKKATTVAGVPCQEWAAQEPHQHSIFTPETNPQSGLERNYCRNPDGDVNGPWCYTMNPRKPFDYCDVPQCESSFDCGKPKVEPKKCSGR

Consider `CC1=CCN(C(=O)[C@H](Cc2cccc(C(=N)N)c2)NS(=O)(=O)c2ccc3c(c2)CCN(C)C3)[C@@H](C(=O)O)C1` [Example 2, 4-Methyl-1-[N-(2-methyl-1,2,3,4-tetrahydroisoquinoline-6-sulphonyl)-3-amidino-(S)-phenylalanyl]-1,2,3,6-tetrahydropyridine-2(R)-carboxylic acid dihydrochloride], for which the inhibition constant (Ki) was 3.9 nM at bovine thrombin, 57 nM in experiment [1] and 6100 nM at bovine plasma plasmin.

Regarding `CC1=CCN(C(=O)[C@H](Cc2cccc(C(=N)N)c2)NS(=O)(=O)c2ccc3c(c2)C(CC(=O)N(C)C)N(C)CC3)[C@@H](C(=O)O)C1` (stereo partly drawn) [Example 5, 1-{N-[1(R,S)-(N,N-Dimethylcarbamoylmethyl)-2-methyl-1,2,3,4-tetrahydroisoquinoline-7-sulphonyl]-3-amidino-(S)-phenylalanyl}-4-methyl-1 2,3,6-tetrahydropyridine-2(R-carboxylic acid dihydrochloride], the values for the inhibitory constant (Ki) (at bovine thrombin; in experiment [1]; at bovine plasma plasmin) were 2.2 nM, 54 nM and 6000 nM, respectively.

Turning to `CC1=CCN(C(=O)[C@H](Cc2cccc(C(=N)N)c2)NS(=O)(=O)c2ccc3c(c2)CCN(C(C)C)CC3)[C@@H](C(=O)O)C1` [Example 8, 4-Methyl-1-{N-[3-(2-propyl]-2,3,4,5-tetrahydro-1H-3-benzazepine-7-sulphonyl-3-amidino-(S)-phenylalanyl}-1,2,3,6-tetrahydropyridine-2(R)-carboxylic acid dihydrochloride], the inhibitory constant (Ki) was determined as 6.4 nM at bovine thrombin, 40 nM in experiment [1] and 1800 nM on bovine plasma plasmin.

Regarding `CC1=CCN(C(=O)[C@H](Cc2cccc(C(=N)N)c2)NS(=O)(=O)c2ccc3c(c2)CN(Cc2ccccc2)CC3)[C@@H](C(=O)O)C1` [Example 10, 1-[N-(2-Benzyl-1,2,3,4-tetrahydroisoquinoline-7-sulphonyl)-3-amidino-(S)-phenylalanyl]-4-methyl-1,2,3,6-tetrahydropyridine-2(R)-carboxylic acid dihydrochloride], the Ki at bovine thrombin was 1 nM; in experiment [1], 48 nM; at bovine plasma plasmin, 180 nM.

Turning to `C[C@@H]1CCN(C(=O)C(Cc2cccc(C(=N)N)c2)NS(=O)(=O)c2ccc3c(c2)CN(C)CC3)[C@@H](C(=O)O)C1` (stereo partly drawn) [Example 13, 4(R)-Methyl-1-[N-(2-methyl-1,2,3,4-tetrahydroisoquinoline-7-sulphonyl)-3-amidino-(R,S)-phenylalanyl]piperidine-2(R)-carboxylic acid dihydrochloride], the inhibition constant Ki came to 4 nM at bovine thrombin, 49 nM in experiment [1] and 12000 nM on bovine plasma plasmin.

As to `CC1=CCN(C(=O)[C@H](Cc2cccc(C(=N)N)c2)NS(=O)(=O)c2ccc3c(c2)CNCC3)C(C(=O)O)C1` (stereo partly drawn) [Example 15, 4-Methyl-1-[N-(1,2,3,4-tetrahydroisoquinoline-7-sulphonyl)-3-amidino-(S)-phenylalanvl]-1,2,3,6-tetrahydropyridine-2(R,S)-carboxylic acid dihydrochloride], the inhibitory constant (Ki) came out at 78 nM at bovine thrombin, 320 nM in experiment [1] and 14000 nM on bovine plasma plasmin.
